# Measurements: patent US9708305B2, “Substituted 1,2,3,4-tetrahydroisoquinoline derivatives for the treatment of hormone-dependent diseases” (UNIVERSITÉ LAVAL, priority 2013, dated 2017)
# “And” between values parts separate entries of the source, which are not always exact repeats. Equal entries are not always repeated.
# Molecular target: T1, STS (Homo sapiens, UniProt P08842)
# T1 construct: expressed in transfected cells; host or cells: HEK-293 cells stably transfected with STS (G418 selection), obtained from Dr. Van Luu-The; used as freeze-thaw homogenate
# T1 sequence (P08842 22-583): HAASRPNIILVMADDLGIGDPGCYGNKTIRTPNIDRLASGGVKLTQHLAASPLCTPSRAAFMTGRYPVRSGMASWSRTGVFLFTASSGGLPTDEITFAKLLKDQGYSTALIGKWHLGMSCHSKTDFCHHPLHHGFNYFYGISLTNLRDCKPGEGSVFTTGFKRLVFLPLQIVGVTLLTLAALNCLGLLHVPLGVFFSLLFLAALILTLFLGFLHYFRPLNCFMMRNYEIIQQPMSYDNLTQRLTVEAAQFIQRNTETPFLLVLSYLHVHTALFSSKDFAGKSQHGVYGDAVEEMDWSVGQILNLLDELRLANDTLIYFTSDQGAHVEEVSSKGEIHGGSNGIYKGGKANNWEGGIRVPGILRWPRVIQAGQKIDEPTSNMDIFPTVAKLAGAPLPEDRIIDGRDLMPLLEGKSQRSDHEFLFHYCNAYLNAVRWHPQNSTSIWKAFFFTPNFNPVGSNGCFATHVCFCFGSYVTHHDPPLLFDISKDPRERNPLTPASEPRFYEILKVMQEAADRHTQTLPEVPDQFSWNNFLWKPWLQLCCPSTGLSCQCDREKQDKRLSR
# Test: STS inhibition of libraries 1-EO to 4-EO, homogenate of STS transfected HEK-293 cells
# Format: biochemical
# Settings: mean ± SEM, triplicate
# Method: The enzymatic assay was performed using homogenate of STS transfected HEK-293 cells as the source of enzyme activity. The transformation of [^3H]-E1S into [^3H]-E1 was measured using scintillation counting of labeled E1S and E1 in the aqueous and organic phases, respectively. Newly synthesized sulfamate compounds were tested at two concentrations (0.1 μM and 1 μM). Libraries 1-EO and 2-EO were synthesized using the p- and m-benzamide spacers as 1st level of molecular diversity and the same wide variety of secondary amines as 2nd level of diversity (Table 2), which were chosen in a somewhat random fashion while including a different pattern, format and heteroatom. […] Compounds 1-EO-07, 1-EO-09 and 1-EO-10 represent a starting point for optimization, as they show more than 36% of inhibition when tested at a concentration of 0.1 μM. These compounds have relatively hydrophobic substituents compared to the rest of the library members. […] The average log P value for the rest of the library, excluding these three compounds, is 1.93.
# This enzymatic assay was carried out according to a procedure previously described for the transformation of substrate [^3H]-E1S (100 μM) into [^3H]-E1 by homogenated HEK-293 cells over-expressing the enzyme activity.^56,73
inhibition at 0.1 µM (0.1 μM) [%],inhibition at 1 µM (1 μM) [%],Structure (SMILES),STS inhibition (%) (0.1 μM),STS inhibition (%) (1 μM),"STS inhibition (%) (1 μM, listed as 1-EO-9, 1 µM)"
,,CCN(Cc1ccncc1)Cc1cccc(C(=O)N2CCc3ccc(OS(N)(=O)=O)cc3C2)c1 [4-EO-16],33.3 ± 0.0%,52.8 ± 1.3,
,,NS(=O)(=O)Oc1ccc2c(c1)CN(C(=O)c1cccc(CN3CCCCC3)c1)CC2 [2-EO-02],1.0 ± 5.1%,11.9 ± 2.6,
,,CN(C)CCN(Cc1ccccc1)Cc1ccc(C(=O)N2CCc3ccc(OS(N)(=O)=O)cc3C2)cc1 [3-EO-04],13.9 ± 4.8%,57.8 ± 3.4,
,,NS(=O)(=O)Oc1ccc2c(c1)CN(C(=O)c1ccc(CN3CCSCC3)cc1)CC2 [1-EO-03],32.3 ± 1.0%,80.2 ± 0.9,
,,CCN(Cc1cccnc1)Cc1cccc(C(=O)N2CCc3ccc(OS(N)(=O)=O)cc3C2)c1 [4-EO-15],14.3 ± 4.7%,33.5 ± 5.8,
,,NS(=O)(=O)Oc1ccc2c(c1)CN(C(=O)c1ccc(CN3CCCCC3)cc1)CC2 [1-EO-02],11.5 ± 2.4%,38.3 ± 3.6,
,,NS(=O)(=O)Oc1ccc2c(c1)CN(C(=O)c1ccc(CN(CCO)Cc3ccccc3)cc1)CC2 [3-EO-02],27.9 ± 2.6%,78.0 ± 1.1,
,,NS(=O)(=O)Oc1ccc2c(c1)CN(C(=O)c1cccc(CN3CCN(c4ncccn4)CC3)c1)CC2 [2-EO-06],1.6 ± 1.6%,24.4 ± 0.4,
10,31,CCN(Cc1ccccc1)Cc1ccc(S(=O)(=O)N2CCc3ccc(OS(N)(=O)=O)cc3C2)cc1 [Compound 14],,,
,,CN(CCN1CCCCC1)Cc1ccc(C(=O)N2CCc3ccc(OS(N)(=O)=O)cc3C2)cc1 [3-EO-06],0.3 ± 1.7%,26.8 ± 13.5,
,,NS(=O)(=O)Oc1ccc2c(c1)CN(C(=O)c1cccc(CN(CCCO)Cc3ccccc3)c1)CC2 [4-EO-03],25.8 ± 3.9%,37.3 ± 7.0,
,,CC(C)CCN(CCC(C)C)Cc1ccc(C(=O)N2CCc3ccc(OS(N)(=O)=O)cc3C2)cc1 [3-EO-09],47.0 ± 13.0%,90.8 ± 1.7,
,,CCN(Cc1cccc(Br)c1)Cc1cccc(C(=O)N2CCc3ccc(OS(N)(=O)=O)cc3C2)c1 [4-EO-12],20.9 ± 7.1%,24.9 ± 0.6,
,,CCCN(Cc1ccccc1)Cc1ccc(C(=O)N2CCc3ccc(OS(N)(=O)=O)cc3C2)cc1 [3-EO-01],64.8 ± 3.8%,94.3 ± 0.3,
,,NS(=O)(=O)Oc1ccc2c(c1)CN(C(=O)c1ccc(CN(Cc3ccccc3)Cc3ccco3)cc1)CC2 [3-EO-11],91% and 90.8 ± 2.6%,98.2 ± 0.4,
,,CN(CCCN1CCCCC1)Cc1cccc(C(=O)N2CCc3ccc(OS(N)(=O)=O)cc3C2)c1 [4-EO-07],24.1 ± 0.4%,30.6 ± 6.9,
,,NS(=O)(=O)Oc1ccc2c(c1)CN(C(=O)c1cccc(CN3CCc4ccccc4C3)c1)CC2 [4-EO-10],24.1 ± 5.6%,50.2 ± 1.9,
,,NS(=O)(=O)Oc1ccc2c(c1)CN(C(=O)c1cccc(CN3CCSCC3)c1)CC2 [2-EO-03],2.3 ± 0.1%,39.6 ± 2.8,
,,CCN(Cc1ccc(Br)cc1)Cc1cccc(C(=O)N2CCc3ccc(OS(N)(=O)=O)cc3C2)c1 [4-EO-13],24.2 ± 4.9%,,
,,NS(=O)(=O)Oc1ccc2c(c1)CN(C(=O)c1cccc(CN3CCC(Cc4ccccc4)CC3)c1)CC2 [2-EO-07],1.4 ± 0.6%,41.9 ± 2.7,
,,NS(=O)(=O)Oc1ccc2c(c1)CN(C(=O)c1ccc(CN3CCN(Cc4ccccc4)CC3)cc1)CC2 [1-EO-05],20.8 ± 3.7%,75.8 ± 1.6,

inhibition at 0.1 µM (0.1 μM) [%],inhibition at 1 µM (1 μM) [%],Structure (SMILES),STS inhibition (%) (0.1 μM),STS inhibition (%) (1 μM),"STS inhibition (%) (1 μM, listed as 1-EO-9, 1 µM)"
,,CCN(Cc1ccc(C(=O)N2CCc3ccc(OS(N)(=O)=O)cc3C2)cc1)Cc1cccc(Br)c1 [3-EO-12],80% and 80.2 ± 8.0%,97.2 ± 0.6,
,,NS(=O)(=O)Oc1ccc2c(c1)CN(C(=O)c1cccc(CN3CCOCC3)c1)CC2 [2-EO-01],0.0 ± 4.7%,20.9 ± 4.4,
,,CN1CCN(Cc2ccc(C(=O)N3CCc4ccc(OS(N)(=O)=O)cc4C3)cc2)CC1 [1-EO-04],2.9 ± 0.5%,23.3 ± 1.3,
,,NS(=O)(=O)Oc1ccc2c(c1)CN(C(=O)c1ccc(CN3CCC(Cc4ccccc4)CC3)cc1)CC2 [1-EO-07],,81.3 ± 0.5,
,,NS(=O)(=O)Oc1ccc2c(c1)CN(C(=O)c1cccc(CN3CCN(Cc4ccccc4)CC3)c1)CC2 [2-EO-05],0.0 ± 3.1%,23.7 ± 0.6,
,,CCN(Cc1ccc(C(=O)N2CCc3ccc(OS(N)(=O)=O)cc3C2)cc1)Cc1ccccn1 [3-EO-14],42.5 ± 3.5%,87.7 ± 0.7,
,,CN(C)CCN(CCN(C)C)Cc1ccc(C(=O)N2CCc3ccc(OS(N)(=O)=O)cc3C2)cc1 [3-EO-08],3.8 ± 9.6%,15.9 ± 21.5,
,,CCN(Cc1ccccc1)Cc1cccc(C(=O)N2CCc3ccc(OS(N)(=O)=O)cc3C2)c1 [2-EO-09],17% and 17.3 ± 2.5%,69.0 ± 0.0,
,,NS(=O)(=O)Oc1ccc2c(c1)CN(C(=O)c1ccc(CN3CCN(c4ncccn4)CC3)cc1)CC2 [1-EO-06],14.7 ± 3.6%,41.9 ± 0.8,
,,CN1CCN(Cc2cccc(C(=O)N3CCc4ccc(OS(N)(=O)=O)cc4C3)c2)CC1 [2-EO-04],0.0 ± 12.2%,12.6 ± 2.3,
,,CCN(Cc1ccc(F)cc1)Cc1cccc(C(=O)N2CCc3ccc(OS(N)(=O)=O)cc3C2)c1 [4-EO-17],10.9 ± 7.4%,66.5 ± 4.5,
1,17,CCN(Cc1ccccc1)Cc1ccc(CN2CCc3ccc(OS(N)(=O)=O)cc3C2)cc1 [Compound 11],,,
,,CN(CCN1CCCCC1)Cc1cccc(C(=O)N2CCc3ccc(OS(N)(=O)=O)cc3C2)c1 [4-EO-06],24.5 ± 7.4%,30.8 ± 6.4,
,,CCCN(CCC)Cc1cccc(C(=O)N2CCc3ccc(OS(N)(=O)=O)cc3C2)c1 [2-EO-10],8.3 ± 0.0%,54.8 ± 1.2,
,,NS(=O)(=O)Oc1ccc2c(c1)CN(C(=O)c1ccc(CN(CCCO)Cc3ccccc3)cc1)CC2 [3-EO-03],5.7 ± 4.4%,64.3 ± 1.6,
,,CCN(Cc1ccccc1)Cc1ccc(C(=O)N2CCc3ccc(OS(N)(=O)=O)cc3C2)cc1 [1-EO-09],,83.6 ± 0.2,84
,,CCN(Cc1ccc(F)cc1)Cc1ccc(C(=O)N2CCc3ccc(OS(N)(=O)=O)cc3C2)cc1 [3-EO-17],69.1 ± 1.9%,91.2 ± 2.7,
,,CN(C)CCN(CCN(C)C)Cc1cccc(C(=O)N2CCc3ccc(OS(N)(=O)=O)cc3C2)c1 [4-EO-08],0.0 ± 0.0%,17.1 ± 7.6,
,,NS(=O)(=O)Oc1ccc2c(c1)CN(C(=O)c1ccc(CN3CCC(N4CCCCC4)CC3)cc1)CC2 [1-EO-08],8.5 ± 1.2%,53.7 ± 4.7,
,,NS(=O)(=O)Oc1ccc2c(c1)CN(C(=O)c1cccc(CN3CCC(N4CCCCC4)CC3)c1)CC2 [2-EO-08],0.0 ± 2.4%,8.0 ± 1.1,
